Assay results taken from patent publication EP0385712B1, “A peptide for use in the manufacture of a composition for prevention or treatment of a condition susceptible to treatment with a platelet aggregation inhibition agent” (ASAHI KASEI KOGYO KABUSHIKI KAISHA, priority 1989, dated 1994).
Positions of bridges follow the written chain, without caps; N, C: chain ends. Residues, ends and D or L forms follow the SMILES beside them.

These molecules were tested on rat, Wister strain (assay: Acute toxicity in rat, intravenous). Details: body weight 80 - 90 g, 80 µg/kg intravenously in the tail, solution in 0.1 M aqueous sodium acetate containing 0.1 % bovine serum albumin.
Format: in vivo
Experimental: A solution of each of the following compounds in 0.1 M aqueous sodium acetate containing 0.1 % bovine serum albumin is administered into a rat, Wister strain, body weight 80 - 90 g, 80 µg/kg, intraveneously in the tail.

Molecule	Acute toxicity (deaths)
CC(C)C[C@H](NC(=O)CNC(=O)[C@H](C)NC(=O)[C@H](CC(C)C)NC(=O)[C@H](CCCNC(=N)N)NC(=O)[C@H](Cc1cnc[nH]1)NC(=O)[C@@H](NC(=O)[C@@H](NC(=O)[C@@H]1CSSC[C@H](NC(=O)[C@H](C)N)C(=O)N[C@@H](CC(=O)O)C(=O)N[C@@H]([C@@H](C)O)C(=O)N[C@@H](C)C(=O)N[C@@H]([C@@H](C)O)C(=O)N1)C(C)C)[C@@H](C)O)C(=O)N[C@@H](CC(C)C)C(=O)N[C@@H](CO)C(=O)N[C@@H](CCCNC(=N)N)C(=O)N[C@@H](CO)C(=O)NCC(=O)NCC(=O)N[C@H](C(=O)N[C@H](C(=O)N[C@@H](CCCCN)C(=O)N[C@@H](CC(N)=O)C(=O)N[C@@H](CC(N)=O)C(=O)N[C@@H](Cc1ccccc1)C(=O)N[C@H](C(=O)N1CCC[C@H]1C(=O)N[C@H](C(=O)N[C@@H](CC(N)=O)C(=O)N[C@H](C(=O)NCC(=O)N[C@@H](CO)C(=O)N[C@@H](CCCCN)C(=O)N[C@@H](C)C(=O)N[C@@H](Cc1ccccc1)C(N)=O)C(C)C)[C@@H](C)O)C(C)C)C(C)C)C(C)C [h - α - CGRP]	No deaths were observed
desalanyl-deamino-h-β-CGRP	No deaths were observed
desalanyl-deamino- [Asn³, Glu¹⁴, Phe¹⁵] -h -α-CGRP	No deaths were observed
CC(C)C[C@H](NC(=O)[C@H](CCCNC(=N)N)NC(=O)[C@H](Cc1c[nH]cn1)NC(=O)[C@@H](NC(=O)[C@@H](NC(=O)[C@@H]1CSSC[C@H](NC(=O)[C@H](C)N)C(=O)N[C@@H](CC(N)=O)C(=O)N[C@@H]([C@@H](C)O)C(=O)N[C@@H](C)C(=O)N[C@@H]([C@@H](C)O)C(=O)N1)C(C)C)[C@@H](C)O)C(=O)N[C@@H](C)C(=O)N[C@@H](CCC(=O)O)C(=O)N[C@@H](Cc1ccccc1)C(=O)N[C@@H](CC(C)C)C(=O)N[C@@H](CO)C(=O)N[C@@H](CCCNC(=N)N)C(=O)N[C@@H](CO)C(=O)NCC(=O)NCC(=O)N[C@H](C(=O)N[C@H](C(=O)N[C@@H](CCCCN)C(=O)N[C@@H](CC(N)=O)C(=O)N[C@@H](CC(N)=O)C(=O)N[C@@H](Cc1ccccc1)C(=O)N[C@H](C(=O)N1CCC[C@H]1C(=O)N[C@H](C(=O)N[C@@H](CC(N)=O)C(=O)N[C@H](C(=O)NCC(=O)N[C@@H](CO)C(=O)N[C@@H](CCCCN)C(=O)N[C@@H](C)C(=O)N[C@@H](Cc1ccccc1)C(N)=O)C(C)C)[C@@H](C)O)C(C)C)C(C)C)C(C)C [[Asn³, Glu¹⁴, Phe¹⁵] -h -α-CGRP] (H-ACNTATCVTHRLAEFLSRSGGVVKNNFVPTNVGSKAF-NH2; disulfide 2-7)	No deaths were observed
desalanyl- [Asu^2,7] -h -β-CGRP	No deaths were observed
desalanyl-deamino- [Asp¹⁴ ] -h -α-CGRP	No deaths were observed
desalanyl-deamino-h-α-CGRP	No deaths were observed
CC(C)C[C@H](NC(=O)[C@H](CCCNC(=N)N)NC(=O)[C@H](Cc1c[nH]cn1)NC(=O)[C@@H](NC(=O)[C@@H](NC(=O)[C@@H]1CSSC[C@H](NC(=O)[C@H](C)N)C(=O)N[C@@H](CC(=O)O)C(=O)N[C@@H]([C@@H](C)O)C(=O)N[C@@H](C)C(=O)N[C@@H]([C@@H](C)O)C(=O)N1)C(C)C)[C@@H](C)O)C(=O)N[C@@H](C)C(=O)N[C@@H](CCC(=O)O)C(=O)N[C@@H](CC(C)C)C(=O)N[C@@H](CC(C)C)C(=O)N[C@@H](CO)C(=O)N[C@@H](CCCNC(=N)N)C(=O)N[C@@H](CO)C(=O)NCC(=O)NCC(=O)N[C@H](C(=O)N[C@H](C(=O)N[C@@H](CCCCN)C(=O)N[C@@H](CC(N)=O)C(=O)N[C@@H](CC(N)=O)C(=O)N[C@@H](Cc1ccccc1)C(=O)N[C@H](C(=O)N1CCC[C@H]1C(=O)N[C@H](C(=O)N[C@@H](CC(N)=O)C(=O)N[C@H](C(=O)NCC(=O)N[C@@H](CO)C(=O)N[C@@H](CCCCN)C(=O)N[C@@H](C)C(=O)N[C@@H](Cc1ccccc1)C(N)=O)C(C)C)[C@@H](C)O)C(C)C)C(C)C)C(C)C [[Glu¹⁴ ] -h -α-CGRP] (H-ACDTATCVTHRLAELLSRSGGVVKNNFVPTNVGSKAF-NH2; disulfide 2-7)	No deaths were observed
desalanyl- [Asp^3, Asu^2,⁷)-c-CGRP	No deaths were observed
desalanyl-deamino- [Asn³, Phe¹⁵, Gly²³] -h -α-CGRP	No deaths were observed
